US20250369032A1 (priority 2023, published 2025)
Several values for one entry are separate records, joined by “and”; a condition that tells them apart may be missing. Equal values may be shown once. Read-outs that look alike come from different tables or passages of the source.

Columns and labels:
[1] = target: T1, alkaline phosphatase (Bos taurus, UniProt P19111)
Protocol: Two different dosing concentrations were evaluated, 10 μL of test chemical added to 90 μL of alkaline phosphatase reaction reagent and 50 μL of test chemical added to 50 μL of alkaline phosphatase reaction reagent; all aliquoted in 96-well plates.
• 1. Alkaline phosphatase reaction reagent (fresh, 1:100) • a. Take 4 mL of AP (1:10) stock solution, add to 36 mL PBS. Vortex mix and then invert to mix 10 times • 2. Prepare alkaline phosphatase reaction reagent for every condition • a. 200 μL AP (1:10) in 1.8 mL PBS • b. […] 200 μL AP (1:10) in 1.8 mL Acetone • 3. Prepare 96-well plates for dosing • 4. Prepare 96-well plates for PNPP reading (3 wells for each test chemical) • a. Aliquot with 200 μL PNPP
• 1. Set 1 • a. 10 μL chemical added to 90 μL AP reaction reagent • 2. Set 2 • a. 50 μL chemical added to 50 μL AP reaction reagent • 3. Incubate for 3 hours • a. To the prepared 96-well plate with 200 μL PNPP aliquoted, add 20 μL • b. […] To the prepared 96-well plate with 200 μL PNPP aliquoted, add 20 μL • b.
In our next study, we focused on ethanol and buffered saline (potassium chloride, potassium phosphate monobasic, sodium chloride, sodium phosphate dibasic) as our solvents.
• 1. Alkaline phosphatase reaction reagent • a. 1:100 • i. PBS: Take 400 μL of AP (1:10) stock solution, add to 3.6 mL PBS. Vortex mix and then invert to mix 10 times • ii. […] Vortex mix and then invert to mix 10 times • b. 1:1000 • i. PBS: Take 400 μL of AP (1:100) stock solution, add to 3.6 mL PBS. Vortex mix and then invert to mix 10 times • ii. […] Vortex mix and then invert to mix 10 times • 2. Prepare 0.5 mL microcentrifuge tubes for dosing • a. One set for room temperature, one set for 37° C. • 3. Prepare 96-well plates for PNPP reading (3 wells for each test chemical) • a. Aliquot with 200 μL PNPP
• 1. In each microcentrifuge tube for each condition, add 180 μL of the corresponding AP reaction reagent • 2. Add 20 μL of the test chemical to each microcentrifuge tube • 3. Incubate for 4 hours (one set at room temperature; one set at 37° C.) • 4. To prepared 96-well plates with 200 μL PNPP aliquoted, add 20 μL of each microcentrifuge tube to the corresponding well • 5.

[2] = system: skin; conditions: cited from earlier work; for in vivo GHS: skin, chemical lists of the protocols
[3] = target: T1, alkaline phosphatase; format: biochemical; design: purchased Sigma Aldrich, St. Louis, MO P0114 (original source); P7640 (second source, 'new AP' condition only)
[4] = system: endogenous skin phosphatase; format: biochemical, porcine; conditions: optical density compared to the naïve condition
Protocol: Our next studies involved applying the test substance (500 μL) directly to the epidermis side of previously frozen porcine skin (Spear Products, Coopersburg, PA) that is placed in a holder that only exposes the epidermis side for 30 minutes, adding phosphate buffered saline (PBS) with added sodium azide (metabolic inhibitor that ensure no viable tissue), then aliquoting into cuvettes to read at an optical density of 300 nm. […] So, at the end of the initial studies described above, almost out of frustration, we tried to probe for released phosphatase activity using p-Nitrophenyl phosphate disodium salt (PNPP; Sigma Aldrich, St. Louis, MO) substrate solution to detect any presence of phosphatase.
• 1. Thaw 2 pieces of frozen porcine skin • a. Punch out as many skin discs and mount in holders • 2. Label cuvettes (3 for each chemical)
• 1. Add 500 μL of test chemical to holder; incubate at room temperate for 30 minutes • 2. After 30 minutes, add 2 mL of PBS-Azide to both the holder containing the test chemical; forcefully pipette and re-pipette 10 times • 3. From the holder, aliquot 400 μL into 3 cuvettes; forcefully pipette and re-pipette 3 times before dispensing into cuvettes
Skin corrosion by GHS Category 1 dermal corrosive chemicals results in the disintegration of the epidermis into the dermis.

[5] = target: T1, alkaline phosphatase; format: biochemical; design: purchased Sigma Aldrich, St. Louis, MO P0114 (original source); P7640 (second source, 'new AP' condition only); conditions: for prediction based on OD405 values (FIG. 6D): original alkaline phosphatase 1:100 dilution; for optical density readings (FIG. 4): repeat, without discs
Excerpt: Our next study focused on an in vitro method of detecting the potential of dermal corrosives to inhibit nonspecific phosphatases that may be released from the skin. We decided to test pure […] instead of relying on endogenous skin phosphatase. Alkaline phosphatase (Sigma Aldrich, St. Louis, MO) was purchased and suspended to make the reaction reagent (10,000 units). […] We note that the ratio used was 0.1 g/ml or 10% chemical-which is far in excess of any pharmaceutical applications. We further note that pharmaceutical enzyme inhibition tests, studies an use involve highly specific active site binding and these assays are conducted at ratios of micrograms-femtograms per ml. These studies are done at these ranges because these are the realistic concentrations for drug applications and therapeutics. […] So when a 50 Kg human consumes the tables, the tissues will be exposed at a 5 mg/50 kg=0.1 mg/kg=0.0000001 g/ml.
Next two quantitative methods were evaluated: 1) using the discs parts from our OptiSafe™ test method and 2) directly into the 24-well plate.
• 1. Alkaline phosphatase reaction reagent • a. Take 1 vial of AP, add 1 mL of PBS, mix by pipette/re-pipette 10 times • b. To a 50 mL conical tube, add 1 mL of the AP solution prepared above and 40 mL of PBS • 2. Prepare two 24-well plates (1 with discs, 1 without discs) • 3. […] Aliquot 200 μL PNPP and PBS
• 1. Plate 1 (No Discs) • a. Add 1.25 mL from the prepared PBS-AP conical tube to each well (11 wells) • b. Add 100 μL of the test material to the well, mix with the same pipette tip, dispose and repeat for the rest of the test materials • c. Wrap the plate in saran wrap and place into the container • 2. Plate 2 (Discs) • a. Configure the 11 discs in the plate so the plate cover is stable • b. Add 1.25 mL from the prepared PBS-AP conical tube to each well (11 wells) • c. Add 100 μL of the test material to the center of the disc and repeat for the rest of the test materials • d. Put the plate cover on and place into the container • 3. […] Incubate for 1 hour
For the new study, the alkaline phosphatase was suspended in phosphate buffered saline (PBS) to make the reaction reagent. Then, 100 μL of the test chemical is added directly into the corresponding wells on a 24-well plate with 1.25 mL of alkaline phosphatase reaction reagent already aliquoted.
• 1. Alkaline phosphatase reaction reagent • a. Take 1 vial of AP, add 1 mL of PBS, mix by pipette/re-pipette 10 times • b. To a 50 mL conical tube, add 1 mL of the AP solution prepared above and 40 mL of PBS • 2. Prepare two 24-well plates • 3. […] Aliquot with 200 μL PNPP and PBS • 4. Prepare glass vials Repeat Procedure from Jan. […] 24-well plate • a. Add 1.25 mL from the prepared PBS-AP conical tube to each well (11 wells) • b. Add 100 μL of the test material to the well, mix with the same pipette tip, dispose and repeat for the rest of the test materials • c. Wrap the plate in saran wrap and place into the container • 2. […] To the prepared 96-well plate with 200 μL PNPP or PBS, add 20 μL from the 24-well plate • 4. Incubate for 1 hour • 5.
• 1. 24-well plate • a. Add 1.25 mL from the prepared PBS-AP conical tube to each well (11 wells) • b. Add 100 μL of the test material to the well, mix with the same pipette tip, dispose and repeat for the rest of the test materials • c. After 10 minutes, mix each well • 2.

[6] = system: porcine skin; conditions: R 1 and 2
Protocol: Our initial studies involved using fresh and frozen porcine skin “buttons”. These buttons were punched out of porcine skin (Spear Products, Cooopersburg, PA) using a […] biopsy punch tool. Three different kinds of skin buttons were prepared from fresh porcine skin, frozen porcine skin, and frozen porcine skin with the fatty layer removed. […] The next day, the tubes were taken out and vortexed and 500 μL of the solution was aliquoted into cuvettes to read at three different optical density wavelengths (OD190, OD290, OD300) to evaluate the best response.
• 1. Thaw 2 pieces of frozen porcine skin • 2. Punch out buttons: 24 buttons in each tube filled with 40 mL PBS-Azide
• 1. Plate layout for dosing:
• 1. Dose each tissue with 140 μL of test chemical • 2.
• 1. Take out of incubator and vortex pulse 3× • 2. Aliquot 500 μL to cuvette and read results at OD190, OD290, and OD300
There were three readings done at an optical density of 190, 290, and 300 nm to evaluate the best response. […] To address the variable exposure conditions, our next studies involved placing a larger porcine skin section into a holder that exposes only the epidermis side with no potential for test chemical exposure from the backside or through the sides.

[7] = 4 mL glass vials, 30 μL into 300 μL, 1:100, 4 hours room temperature, 3 mL PNPP 1 hour
[8] = 1:100, 20 μL into 180 μL, 0.5 mL microcentrifuge tubes, 4 hours RT, PNPP 60 min, 405 nm
[9] = average of R1-R3, 1:100, 20 μL into 180 μL, 4 hours RT, PNPP 60 min, 405 nm
[10] = original alkaline phosphatase 1:1, 18 hours room temperature
[11] = original alkaline phosphatase 1:100 (100 units), 100 μL into 1 mL, 18 hours room temperature, PNPP 1 hour
[12] = fresh porcine skin, 140 μL, 18 hours at 37° C. in PBS-Azide
[13] = frozen porcine skin with fat layer removed
[14] = 10-minute test chemical exposure
[15] = 18 hours 37° C., PNPP 1 hour, 405 nm

T1 sequence (P19111 20-506): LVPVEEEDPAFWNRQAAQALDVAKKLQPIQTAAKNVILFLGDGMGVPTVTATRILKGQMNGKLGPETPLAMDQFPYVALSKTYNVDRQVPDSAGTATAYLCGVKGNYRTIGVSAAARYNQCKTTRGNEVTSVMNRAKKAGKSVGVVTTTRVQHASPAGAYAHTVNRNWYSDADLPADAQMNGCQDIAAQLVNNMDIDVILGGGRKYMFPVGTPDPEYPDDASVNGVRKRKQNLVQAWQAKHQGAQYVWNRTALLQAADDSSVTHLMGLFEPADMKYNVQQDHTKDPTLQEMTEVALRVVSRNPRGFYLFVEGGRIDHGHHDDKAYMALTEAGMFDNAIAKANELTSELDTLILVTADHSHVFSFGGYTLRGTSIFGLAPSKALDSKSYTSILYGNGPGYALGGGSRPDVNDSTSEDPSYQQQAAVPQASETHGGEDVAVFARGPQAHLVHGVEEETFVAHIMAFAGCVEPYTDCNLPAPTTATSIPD

Cc1ccc(C(C)C)cc1O
OD405 readings (FIG. 11D) [1, 7]: 3.444 and 3.465 and 3.398
in vivo GHS [2]: Cat. 1B/1C
A1-Results R1 [3, 8]: 0.211
A1-Results R3 [3, 8]: 0.272
OD405 readings (FIG. 11B) [3, 7]: 1.990 and 1.926
A1-Results AVG [3, 9]: 0.242
prediction based on OD405 values (FIG. 6B) [3, 10]: incorrectly predicted
OD405 readings (FIG. 6D) [3, 11]: 0.991 and 0.974 and 1.167

C=CCCC=C [1,5-Hexadiene]
OD405 reading (FIG. 7A) [1]: 1.702
OD405 reading (FIG. 7B) [1]: 2.947
A1-Results R1 [3, 8]: 3.502
A1-Results R3 [3, 8]: 3.498
A1-Results AVG [3, 9]: 3.496

ClCCCCBr [1-Bromo-4-chlorobutane]
OD405 reading (FIG. 9B) [1]: 0.799
A1-Results R1 [3, 8]: 3.387
A1-Results R3 [3, 8]: 3.502
A1-Results AVG [3, 9]: 3.464

CC(=O)O [Acetic acid]
percent of phosphatase measured (first reading) [4]: 19.1%
percent of phosphatase measured (second reading) [4]: 18.6%
percent of phosphatase measured, average [4]: 18.9%
Corrosive ([2]; rabbit, in vivo): Yes
optical density readings (FIG. 3B) [5]: 0.104 and 0.129 and 0.101
A1-Results AVG [3]: 0.096
A1-Results R1 [3]: 0.096
A1-Results R3 [3]: 0.096
optical density readings (FIG. 3A) [3]: 0.106 and 0.102 and 0.103

CN(C)CCCNCCCN [Dimethyldipropylenetriamine]
OD190 [6, 12]: >3A
OD290 [6, 12]: 0.922 and 1.016
OD300 [6, 12]: 0.819 and 0.887
OD190 [6, 13]: 0.610 and 0.594
OD290 [6, 13]: 0.238 and 0.170
OD300 [6, 13]: 0.162 and 0.118
OD190 ([6]; frozen porcine skin): >3A
OD290 ([6]; frozen porcine skin): 0.936 and 0.775
OD300 ([6]; frozen porcine skin): 0.806 and 0.636
percent of phosphatase measured (first reading) [4]: 23.5%
percent of phosphatase measured (second reading) [4]: 17.7%
percent of phosphatase measured, average [4]: 20.6%
Corrosive ([2]; Table 2): Yes
10-minute PNPP incubation readings (FIG. 5A) [5, 14]: 3.449 and 3.502 and 3.500
18-hour PNPP incubation readings (FIG. 5D) [5, 14]: 0.112 and 0.105 and 0.110
prediction based on OD405 values (FIG. 6C) ([5]; original alkaline phosphatase 1:10 dilution): mispredicted
prediction based on OD405 values (FIG. 6D) [5]: correctly predicted
optical density readings (FIG. 4) [5, 15]: 0.132 and 0.128 and 0.127
optical density readings (FIG. 3A) ([5]; with discs, 100 μL into 1.25 mL reaction reagent (10,000 units), 18 hours 37° C., PNPP 1 hour, 405 nm): 0.152 and 0.159 and 0.140
A1-Results R1 [3, 8]: 0.118
A1-Results R3 [3, 8]: 0.124
1-hour PNPP incubation readings (FIG. 5B) [3, 14]: 0.352 and 0.283 and 0.333
4-hour PNPP incubation readings (FIG. 5C) [3, 14]: 0.122 and 0.116 and 0.114
A1-Results AVG [3, 9]: 0.121
optical density readings (FIG. 3B) ([3]; without discs, 100 μL into 1.25 mL reaction reagent (10,000 units), 18 hours 37° C., PNPP 1 hour, 405 nm): 0.138 and 0.176 and 0.133

CC(C)N(C)C [Dimethylisopropylamine]
OD405 readings (FIG. 11D) [1, 7]: 2.926 and 2.922 and 2.852
in vivo GHS [2]: Cat. 1B/1C
A1-Results R1 [3, 8]: 3.423
A1-Results R3 [3, 8]: 3.485
OD405 readings (FIG. 11B) [3, 7]: 3.354 and 3.466 and 3.502
A1-Results AVG [3, 9]: 3.458
prediction based on OD405 values (FIG. 6B) [3, 10]: incorrectly predicted
OD405 readings (FIG. 6D) [3, 11]: 3.466 and 3.502

NCCO [Ethanolamine]
percent of phosphatase measured (first reading) [4]: 20.1%
percent of phosphatase measured (second reading) [4]: 19.6%
percent of phosphatase measured, average [4]: 19.9%
Corrosive ([2]; rabbit, in vivo): Yes
optical density readings (FIG. 3B) [5]: 0.174 and 0.185 and 0.175
optical density readings (FIG. 3A) [3]: 0.170 and 0.166 and 0.172

CN(C)Cc1ccccc1 [N,N-Dimethylbenzylamine]
OD405 reading (FIG. 9B) [1]: 0.587
OD405 readings (FIG. 11D) [1]: 3.429 and 3.249 and 3.164
A1-Results AVG [3]: 3.240
A1-Results R1 [3]: 3.265
A1-Results R3 [3]: 3.230
OD405 readings (FIG. 6D) [3]: 3.431 and 3.502 and 3.61
OD405 readings (FIG. 11B) [3]: 3.360 and 3.238 and 3.273
prediction based on OD405 values (FIG. 6B) [3]: incorrectly predicted

[K+].[OH-] [Potassium hydroxide (10%)]
in vivo GHS [2]: Cat. 1B (Category 1B (corrosive responses in at least one animal during exposure period of ≤1 hour))
prediction based on OD405 values (FIG. 6D) [5]: correctly predicted
optical density readings (FIG. 4) [5, 15]: 0.123 and 0.124
A1-Results R1 [3, 8]: 0.118
A1-Results R3 [3, 8]: 0.112
A1-Results AVG [3, 9]: 0.114
